“And” between values parts separate entries of the source, which are not always exact repeats. Equal values may be shown once. Read-outs that look alike come from different tables or passages of the source.
How the values were obtained:
[1] = target: T1, Ser1981 of ataxia-telangiectasia mutated (ATM) (Homo sapiens, UniProt Q13315); assay: Inhibition of phosphorylation of Ser1981 of ATM in UT-SCC-54C cells, western immunoblotting; assay type: cell-based; settings: oxia, 10 Gy, FIG. 7 (10 μM)
T1 construct: Ser1981 of ataxia-telangiectasia mutated (ATM) in UT-SCC-54C cells

[2] = target: Ser2056 of DNA-PKcs (Homo sapiens, UniProt P78527); assay: Inhibition of cellular autophosphorylation at Ser2056 of DNA-PKcs in UT-SCC-54C cells, western immunoblotting; assay type: cell-based; settings: for inhibition of Ser2056 on DNA-PKcs: oxia, FIG. 7 (10 μM)
[3] = test system: UT-SCC-54C tumour xenografts; assay: Inhibition of UT-SCC-54C tumour growth, tumour xenograft study; assay type: in vivo, female NIH-III mice
[4] = test system: UT-SCC-54C cells; assay: Radiosensitisation of UT-SCC-54C HNSCC cells, regrowth (sulforhodamine B) assay, oxic (Table 16); assay type: cell-based, human; settings: for S50: compound in combination with 3 Gy of radiation, 50% inhibition of regrowth fraction, UT-SCC-54C; for S50 / radiosensitisation / differential growth inhibition of UT-SCC-54C cells: oxic; for IC50: Homo sapiens, read-out: IC50; for radiosensitisation / differential growth inhibition of UT-SCC-54C cells: 0 or 3 Gy, regrowth assay
[5] = test system: UT-SCC-54C tumour xenografts; assay: Radiosensitisation of UT-SCC-54C HNSCC tumours, ex vivo clonogenic assay of tumour xenografts; assay type: in vivo, female NIH-III mice; settings: for reduction in clonogens/gram of tumour, compound with radiation compared to radiation alone: IP 50 mg/kg 15 min before and 6 h after 13 Gy whole-body irradiation; for reduction in clonogens/gram of tumour tissue, compound alone: IP 2 x 50 mg/kg, no radiation, compared to DMSO control
[6] = test system: UT-SCC-54C cells; assay: Radiosensitisation of UT-SCC-54C HNSCC cells, clonogenic survival, oxic and anoxic (Table 18); assay type: cell-based, human; settings: for radiosensitisation of UT-SCC-54C cells under oxic conditions / SER (sensitiser enhancement ratio): clonogenic survival; for radiosensitisation of UT-SCC-54C cells under oxic conditions: FIG. 9; for Plating efficiency drug/no drug: no radiation; for SER (sensitiser enhancement ratio): anoxic conditions, FIG. 10
[7] = test system: HAP1 cells; assay: Radiosensitisation of HAP1 wild type cells, regrowth assay; assay type: cell-based, human; settings: for radiosensitisation / differential growth inhibition of HAP1 cells: 3 Gy cobalt-60 gamma irradiation relative to radiation-only; for IC50: Homo sapiens, HAP1, read-out: HAP1 wt IC50
[8] = target: ATR/ATRIP (Homo sapiens, UniProt Q13535); assay: ATR/ATRIP Human PIKK Kinase Enzymatic Radiometric Assay, KinaseProfiler (Eurofins Discovery); assay type: biochemical; settings: Km ATP, Table 15, read-out: Inhibition of PIKK kinase activity ATR
Chain of ATR/ATRIP (Q13535 whole entry): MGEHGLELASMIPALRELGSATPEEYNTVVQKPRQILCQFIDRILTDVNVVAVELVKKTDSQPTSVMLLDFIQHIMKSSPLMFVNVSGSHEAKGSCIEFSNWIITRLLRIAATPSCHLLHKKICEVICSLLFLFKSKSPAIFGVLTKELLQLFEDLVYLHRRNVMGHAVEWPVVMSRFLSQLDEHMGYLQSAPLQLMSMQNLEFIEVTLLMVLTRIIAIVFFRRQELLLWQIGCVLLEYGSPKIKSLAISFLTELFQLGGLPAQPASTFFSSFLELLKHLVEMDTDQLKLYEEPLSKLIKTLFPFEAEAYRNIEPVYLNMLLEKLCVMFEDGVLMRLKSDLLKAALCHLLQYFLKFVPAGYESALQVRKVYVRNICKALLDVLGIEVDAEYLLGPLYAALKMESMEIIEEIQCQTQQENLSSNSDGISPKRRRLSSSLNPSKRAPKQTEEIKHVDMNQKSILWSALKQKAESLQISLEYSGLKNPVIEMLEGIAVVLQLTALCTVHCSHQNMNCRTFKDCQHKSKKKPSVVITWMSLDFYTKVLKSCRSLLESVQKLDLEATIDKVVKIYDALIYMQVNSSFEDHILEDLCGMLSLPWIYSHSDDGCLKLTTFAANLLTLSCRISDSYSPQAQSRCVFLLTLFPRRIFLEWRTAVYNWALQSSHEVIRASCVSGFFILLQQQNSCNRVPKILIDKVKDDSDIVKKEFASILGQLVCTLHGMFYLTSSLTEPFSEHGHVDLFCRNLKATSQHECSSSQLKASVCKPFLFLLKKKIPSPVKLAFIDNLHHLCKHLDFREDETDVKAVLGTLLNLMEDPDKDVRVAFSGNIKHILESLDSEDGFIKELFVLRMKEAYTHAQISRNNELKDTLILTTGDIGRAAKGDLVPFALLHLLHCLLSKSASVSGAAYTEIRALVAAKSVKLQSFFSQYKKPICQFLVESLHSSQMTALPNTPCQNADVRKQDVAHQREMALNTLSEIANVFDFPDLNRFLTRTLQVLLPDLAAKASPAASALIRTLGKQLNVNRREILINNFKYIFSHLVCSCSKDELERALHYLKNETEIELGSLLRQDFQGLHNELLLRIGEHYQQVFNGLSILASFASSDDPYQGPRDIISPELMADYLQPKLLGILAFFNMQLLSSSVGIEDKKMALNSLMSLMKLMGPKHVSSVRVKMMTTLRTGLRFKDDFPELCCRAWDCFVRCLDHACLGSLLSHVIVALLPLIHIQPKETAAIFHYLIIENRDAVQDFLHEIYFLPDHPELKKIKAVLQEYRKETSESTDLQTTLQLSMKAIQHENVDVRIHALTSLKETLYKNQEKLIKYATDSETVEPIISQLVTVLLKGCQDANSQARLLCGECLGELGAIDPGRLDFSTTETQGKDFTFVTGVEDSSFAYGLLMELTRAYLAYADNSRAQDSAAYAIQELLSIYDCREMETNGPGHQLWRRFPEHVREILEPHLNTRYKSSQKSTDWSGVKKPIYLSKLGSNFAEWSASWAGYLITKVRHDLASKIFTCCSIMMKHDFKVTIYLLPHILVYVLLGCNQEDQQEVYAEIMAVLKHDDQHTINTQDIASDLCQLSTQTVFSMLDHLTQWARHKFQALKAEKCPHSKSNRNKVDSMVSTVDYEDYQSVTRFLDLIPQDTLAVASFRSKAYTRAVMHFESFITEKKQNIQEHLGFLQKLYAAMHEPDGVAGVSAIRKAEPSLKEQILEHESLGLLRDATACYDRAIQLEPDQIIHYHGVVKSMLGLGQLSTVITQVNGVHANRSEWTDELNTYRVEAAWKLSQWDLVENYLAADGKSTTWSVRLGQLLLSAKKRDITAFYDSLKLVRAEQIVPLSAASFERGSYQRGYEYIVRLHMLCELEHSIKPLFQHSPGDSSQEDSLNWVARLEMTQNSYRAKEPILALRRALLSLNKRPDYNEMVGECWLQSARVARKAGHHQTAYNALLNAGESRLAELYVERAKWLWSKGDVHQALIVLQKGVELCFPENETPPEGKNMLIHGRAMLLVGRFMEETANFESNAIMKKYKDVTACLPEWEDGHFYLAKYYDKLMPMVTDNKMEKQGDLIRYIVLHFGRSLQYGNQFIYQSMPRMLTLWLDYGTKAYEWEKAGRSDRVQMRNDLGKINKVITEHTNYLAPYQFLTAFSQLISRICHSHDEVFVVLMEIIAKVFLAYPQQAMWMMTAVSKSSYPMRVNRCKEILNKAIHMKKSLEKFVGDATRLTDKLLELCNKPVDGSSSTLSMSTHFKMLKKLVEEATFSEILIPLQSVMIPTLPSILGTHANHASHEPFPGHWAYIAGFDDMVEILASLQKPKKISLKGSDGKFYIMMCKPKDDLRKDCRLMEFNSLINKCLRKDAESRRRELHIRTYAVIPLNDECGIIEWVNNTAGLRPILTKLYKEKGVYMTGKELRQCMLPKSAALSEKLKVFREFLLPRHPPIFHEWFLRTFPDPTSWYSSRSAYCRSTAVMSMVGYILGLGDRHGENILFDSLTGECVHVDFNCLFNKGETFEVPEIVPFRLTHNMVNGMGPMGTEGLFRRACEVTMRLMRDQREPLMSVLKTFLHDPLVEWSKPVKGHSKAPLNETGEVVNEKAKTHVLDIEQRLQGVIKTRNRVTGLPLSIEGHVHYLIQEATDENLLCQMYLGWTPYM
Chain of ATR/ATRIP (Q8WXE1 whole entry partner): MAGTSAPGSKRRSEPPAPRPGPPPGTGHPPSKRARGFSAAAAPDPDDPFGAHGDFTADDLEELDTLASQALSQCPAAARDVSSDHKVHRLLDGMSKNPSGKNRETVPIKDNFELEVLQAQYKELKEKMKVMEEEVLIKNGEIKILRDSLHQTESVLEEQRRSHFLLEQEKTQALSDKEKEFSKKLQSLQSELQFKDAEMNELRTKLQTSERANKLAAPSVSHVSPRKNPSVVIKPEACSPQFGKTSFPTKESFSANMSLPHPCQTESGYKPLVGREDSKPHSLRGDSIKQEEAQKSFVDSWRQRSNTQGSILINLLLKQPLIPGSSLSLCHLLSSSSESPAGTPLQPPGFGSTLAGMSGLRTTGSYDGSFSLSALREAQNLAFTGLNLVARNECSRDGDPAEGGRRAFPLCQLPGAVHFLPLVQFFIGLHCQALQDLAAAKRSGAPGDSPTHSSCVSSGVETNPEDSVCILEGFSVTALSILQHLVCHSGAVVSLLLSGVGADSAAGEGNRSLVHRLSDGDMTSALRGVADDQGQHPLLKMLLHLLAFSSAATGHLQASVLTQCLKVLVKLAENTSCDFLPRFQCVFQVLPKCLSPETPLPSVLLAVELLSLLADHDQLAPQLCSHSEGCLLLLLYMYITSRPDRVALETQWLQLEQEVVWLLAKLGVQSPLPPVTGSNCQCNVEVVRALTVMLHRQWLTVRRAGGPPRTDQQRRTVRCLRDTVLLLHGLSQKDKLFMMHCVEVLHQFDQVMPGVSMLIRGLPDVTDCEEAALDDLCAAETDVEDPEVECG

[9] = target: human mTOR (Homo sapiens, UniProt P42345); assay: Inhibition of mTOR kinase activity, HotSpot assay, phosphorylation of 4EPB1
[10] = target: human DNA-PK (Homo sapiens, UniProt P78527); assay: Inhibition of DNA-PKcs kinase activity, HotSpot assay (Reaction Biology), [γ-33P]-ATP phosphorylation of peptide substrate; assay type: biochemical
[11] = target: ATM (Homo sapiens, UniProt Q13315); assay: ATM Human PIKK Kinase Enzymatic ELISA/EIA Assay, KinaseProfiler (Eurofins Discovery); assay type: biochemical; settings: KinaseProfiler, Km ATP; Table 15; read-out: Inhibition of PIKK kinase activity ATM
[12] = test system: HAP1/PRKDC−/− cells; assay: Radiosensitisation of DNA-PK null HAP1/PRKDC−/− cells, regrowth assay; assay type: cell-based, human; settings: for radiosensitisation / differential growth inhibition of DNA-PK null HAP1 line: 3 Gy, HAP1/PRKDC−/−; for IC50: Homo sapiens, HAP1
[13] = target: human PI3Kα (p110α/p85α) (Homo sapiens, UniProt P42336); assay: Inhibition of PI3Kα kinase activity, ADP-Glo Assay (Reaction Biology); assay type: biochemical; settings: 10 μM ATP; mean of two replicates; Table 12; read-out: Inhibition of kinase activity (as IC50) PICK
[14] = test system: UT-SCC-54C cells; assay: Hypoxia-selective metabolism of prodrugs by UT-SCC-54C cells, LC-MS; settings: 10 μM, 0-3 h
[15] = Inhibition of PIKK kinase activity mTOR/FRAP (nM), HotSpot assay Reaction Biology Corp., Table 15
[16] = Inhibition of kinase activity (as IC50) mTOR (nM), 10 μM ATP, mean of two replicates, Table 12
[17] = 10 μM ATP, 10 μg/ml DNA, mean of two replicates, Table 12, read-out: Inhibition of kinase activity (as IC50) DNA-PK (converted)
[18] = HotSpot assay Reaction Biology Corp., Table 15, read-out: Inhibition of PIKK kinase activity DNA-PK

Structure (SMILES): CC(C)n1c(=O)n(C)c2cnc3cc(F)c(-c4ccc(OCCCN5CCCCC5)nc4)cc3c21 [AZD1393, reference compound]
- inhibition of phosphorylation of Ser1981 on ATM [1]: inhibited
- inhibition of Ser2056 on DNA-PKcs ([2]; 10 Gy): did not affect

Structure (SMILES): COc1ccc(Nc2cc3c(cn2)n(C)c(=O)n3C2CCOCC2)c(C)c1 [Compound 121, 6-((4-Methoxy-2-methylphenyl)amino)-3-methyl-1-(tetrahydro-2H-pyran-4-yl)-1,3-dihydro-2H-imidazo[4,5-c]pyridin-2-one]
- tumour growth inhibition in combination with radiation compared to radiation alone ([3]; PO 2×100 mg/kg, 10 Gy (P=0.007)): significant tumour growth inhibition
- tumour growth inhibition in combination with radiation compared to radiation alone ([3]; PO 2×400 mg/kg, 10 Gy (P=0.03)): significant tumour growth inhibition
- tumour growth inhibition, compound alone ([3]; PO, compared to DMSO control, FIG. 12A): little additional tumour growth inhibition
- S50 [4]: 0.34 µM
- reduction in clonogens/gram of tumour, compound with radiation compared to radiation alone [5]: significant (p=0.005) additional reduction
- reduction in clonogens/gram of tumour tissue, compound alone [5]: no reduction
- D1 (radiation dose for 1% surviving fraction) ([6]; 0% O2, compound conc 1 μM): 11.7 Gy
- D10 (radiation dose for 10% surviving fraction) ([6]; 0% O2, compound conc 1 μM): 6.18 Gy
- D1 (radiation dose for 1% surviving fraction) ([6]; 20% O2, compound conc 0.33 μM): 1.29 Gy
- D10 (radiation dose for 10% surviving fraction) ([6]; 20% O2, compound conc 0.33 μM): 4.63 Gy
- D10 (radiation dose for 10% surviving fraction) ([6]; 20% O2, compound conc 1 μM): 2.65 Gy
- D1 (radiation dose for 1% surviving fraction) ([6]; 20% O2, compound conc 3 μM): 3.44 Gy
- D10 (radiation dose for 10% surviving fraction) ([6]; 20% O2, compound conc 3 μM): 1.73 Gy
- radiosensitisation, clonogenic survival endpoint ([6]; UT-SCC-54C, FIG. 8 and Table 18): concentration-dependent increases in radiosensitisation
- radiosensitisation of UT-SCC-54C cells under oxic conditions [6]: provides radiosensitisation
- effect in unirradiated HAP1 cells ([7]; 0 Gy): little effect
- radiosensitisation / differential growth inhibition of HAP1 cells [7]: concentration-dependent radiosensitisation
- IC50 [8]: > 100 µM

Structure (SMILES): Cc1cc(OCc2cnc([N+](=O)[O-])n2C)ccc1Nc1cc2c(cn1)n(C)c(=O)n2C1CCCC1 [Compound 234, 1-Cyclopentyl-3-methyl-6-((2-methyl-4-((1-methyl-2-nitro-1H-imidazol-5-yl)methoxy)phenyl)amino)-1,3-dihydro-2H-imidazo[4,5-c]pyridin-2-one]
- inhibition of phosphorylation of Ser1981 on ATM [1]: did not inhibit
- IC50 [9, 15]: 30000 nM
- IC50 [9, 16]: 30000 nM
- IC50 [10, 17]: 0.766 µM
- IC50 [10, 18]: 0.766 µM
- IC50 [11]: > 100 µM
- IC50 [4]: 10.6 µM
- S50 [4]: 10.9 µM
- radiosensitisation / differential growth inhibition of UT-SCC-54C cells [4]: did not display any differential growth inhibition
- inhibition of radiation-induced Ser2056 autophosphorylation under anoxia ([2]; anoxic, FIG. 6 (20 μM)): able to inhibit phosphorylation
- inhibition of Ser2056 on DNA-PKcs ([2]; 10 Gy): did not inhibit
- inhibition of Ser2056 autophosphorylation under oxia ([2]; oxic, 10 Gy, FIG. 5 (20 μM)): little inhibition
- D1 (radiation dose for 1% surviving fraction) ([6]; 0% O2, compound conc 10 μM): 9.72 Gy
- D10 (radiation dose for 10% surviving fraction) ([6]; 0% O2, compound conc 10 μM): 6.78 Gy
- SER1 (sensitiser enhancement ratio at 1% surviving fraction) ([6]; 0% O2, compound conc 10 μM): 1.25
- SER10 (sensitiser enhancement ratio at 10% surviving fraction) ([6]; 0% O2, compound conc 10 μM): 1.79
- Plating efficiency drug/no drug ([6]; 0% O2, compound conc 10 μM): 1.01
- D1 (radiation dose for 1% surviving fraction) ([6]; 20% O2, compound conc 10 μM): 7.43 Gy
- D10 (radiation dose for 10% surviving fraction) ([6]; 20% O2, compound conc 10 μM): 4.96 Gy
- SER1 (sensitiser enhancement ratio at 1% surviving fraction) ([6]; 20% O2, compound conc 10 μM): 1.16
- SER10 (sensitiser enhancement ratio at 10% surviving fraction) ([6]; 20% O2, compound conc 10 μM): 1.13
- Plating efficiency drug/no drug ([6]; 20% O2, compound conc 10 μM): 1.57
- SER (sensitiser enhancement ratio) ([6]; UT-SCC-54C): 1.37
- radiosensitisation of UT-SCC-54C cells under oxic conditions [6]: does not
- radiosensitisation / differential growth inhibition of DNA-PK null HAP1 line [12]: did not demonstrate any differential growth inhibition
- IC50 [12]: 8.6 µM
- radiosensitisation / differential growth inhibition of HAP1 cells [7]: did not demonstrate any differential growth inhibition
- IC50 [7]: 9.74 µM
- IC50 [8]: > 100 µM
- IC50 [13]: 0.877 µM

Structure (SMILES): COc1ccc(N(C(=O)OCc2cnc([N+](=O)[O-])n2C)c2cc3c(cn2)n(C)c(=O)n3C2CCOCC2)c(C)c1 [Compound 248, (1-Methyl-2-nitro-1H-imidazol-5-yl)methyl (4-methoxy-2-methylphenyl)(3-methyl-2-oxo-1-(tetrahydro-2H-pyran-4-yl)-2,3-dihydro-1H-imidazo[4,5-c]pyridin-6-yl)carbamate]
- IC50 [9, 15]: ≥ 10000 nM
- IC50 [9, 16]: > 100000 nM
- IC50 ([9]; read-out: Inhibition of kinase activity (as IC50) mTOR, 10 μM ATP, mean of two replicates, Table 12): > 100000 nM
- IC50 [10, 17]: 0.0185 µM and 0.14 µM
- IC50 [10, 18]: 0.0185 µM
- IC50 [11]: > 100 µM
- IC50 [4]: > 10 µM
- S50 [4]: >10 µM
- radiosensitisation / differential growth inhibition of UT-SCC-54C cells [4]: did not display any differential growth inhibition
- metabolism of prodrug by UT-SCC-54C cells under anoxic conditions (release of 121) ([14]; anoxic): selectively metabolised
- metabolism of prodrug by UT-SCC-54C cells under oxic conditions ([14]; oxic): not under oxic conditions
- reduction in clonogens/gram of tumour, compound with radiation compared to radiation alone [5]: smaller, but significant (p=0.018) effect
- reduction in clonogens/gram of tumour tissue, compound alone [5]: no reduction
- D1 (radiation dose for 1% surviving fraction) ([6]; 0% O2, compound conc 1 μM): 13.8 Gy
- D10 (radiation dose for 10% surviving fraction) ([6]; 0% O2, compound conc 1 μM): 8.57 Gy
- SER1 (sensitiser enhancement ratio at 1% surviving fraction) ([6]; 0% O2, compound conc 1 μM): 1.71
- SER10 (sensitiser enhancement ratio at 10% surviving fraction) ([6]; 0% O2, compound conc 1 μM): 1.73
- Plating efficiency drug/no drug ([6]; 0% O2, compound conc 1 μM): 1.13
- D1 (radiation dose for 1% surviving fraction) ([6]; 20% O2, compound conc 1 μM): 9.34 Gy
- D10 (radiation dose for 10% surviving fraction) ([6]; 20% O2, compound conc 1 μM): 5.61 Gy
- SER1 (sensitiser enhancement ratio at 1% surviving fraction) ([6]; 20% O2, compound conc 1 μM): 1.04
- SER10 (sensitiser enhancement ratio at 10% surviving fraction) ([6]; 20% O2, compound conc 1 μM): 1.12
- Plating efficiency drug/no drug ([6]; 20% O2, compound conc 1 μM): 1.21
- SER (sensitiser enhancement ratio) ([6]; UT-SCC-54C): 1.82
- radiosensitisation of UT-SCC-54C cells under oxic conditions [6]: does not
- radiosensitisation / differential growth inhibition of DNA-PK null HAP1 line [12]: did not demonstrate any differential growth inhibition
- IC50 [12]: > 10 µM
- radiosensitisation / differential growth inhibition of HAP1 cells [7]: did not demonstrate any differential growth inhibition
- IC50 [7]: > 10 µM
- IC50 [8]: > 100 µM
- IC50 [13]: 107 µM and > 100 µM

From patent US20230365559A1, “NOVEL AMINOPYRIDINES AND THEIR USE IN TREATING CANCER” (priority 2020, published 2023)
